Reference: US11913882B2, “Determination of the supramolecular organization of encapsulated molecules by luminescence lifetime analysis” (SCUOLA NORMALE SUPERIORE, priority 2020, dated 2024)

Experiment: Fluorescence lifetime analysis (phasor-FLIM) of DOX organization states and Doxoves®
Format: physicochemical
Description: The procedure was applied to Doxoves® as follows: • 1) Based on previous knowledge, at least three different supramolecular organizations of DOX molecules are supposed to contribute to the overall nature of Doxoves® nanocarriers: crystallized DOX, free DOX, and DOX eventually associated with the nanocarrier surface, i.e. with lipids. These three forms are defined here as standards. • 2) The three standards identified at step 1 are obtained and measured. As a preliminary step, each standard is produced and dissolved in a buffer that is the same as that of the test substance. In the present case, manufacturer's indications were followed to produce the correct buffer composition. In general, substances having an impact on lifetime analysis of the test substance, e.g. Doxoves®, shall be also present in the standard substances. First, the phasor signature of crystalized DOX and free-in-solution DOX are measured: two mono-exponential lifetimes are obtained: 0.2 ns for the crystal and 1 ns for free DOX, respectively. […] Then, by spin-coating simil-Doxoves® nanoparticles on a glass surface. This procedure destroys mechanically the liposomal particles and recovers the liposomal membranes on the glass. […] It is important to note that lifetime measuring conditions, e.g. temperature, pH etc., shall be the same for measures on the test substance and measures on the standard substances. • 5) Doxoves® lifetime data are analysed by the phasor approach. In more detail, the phasor is calculated by using a dedicated routine in the SimFCS software (Laboratory for Fluorescence Dynamics, University of California, Irvine). […] Simple algebraic rules are adopted to extract quantitatively the relative contribution (fractional intensity) of each standard (by a dedicated routine in SimFCS software). • It may still be under question whether there may be more than three organization states, e.g. four defining a trapezoidal shape within the universal circle and circumscribing the location of the test substance lifetime decay within the universal circle. A final control experiment was thus performed to corroborate the hypothesis that only three standard components (and NOT more than three) contribute to the overall organization of encapsulated DOX. In brief, the lifetime of simil-Doxoves® in solution is measured. If only three components contribute to Doxoves® organization, simil-Doxoves® is expected to be a linear combination of just free DOX and DOX associated to nanocarrier lipids, thus lying along the segment that connects these two states.

[1] = within tested nanoparticles, FIG. 4, phasor plot triangle

COc1cccc2c1C(=O)c1c(O)c3c(c(O)c1C2=O)C[C@@](O)(C(=O)CO)C[C@@H]3O[C@H]1C[C@H](N)[C@H](O)[C@H](C)O1 [DOX, doxorubicin]
fluorescence lifetime of free DOX in solution, mono-exponential (pure standard, free in water/buffer, phasor approach): 1 ns | fluorescence lifetime of crystalized DOX (purified rod-shaped crystals), mono-exponential (pure standard, excitation 470 nm, emission 500-650 nm, phasor approach): 0.2 ns | fractional intensity of DOX conjugate with the lipids [1]: 46% | fractional intensity of DOX organized into nanorod crystals [1]: 36% | fractional intensity of free DOX [1]: 18%
